Like-named read-outs stand apart in the source and are kept apart here. Starred links: 1 amine or outer side, 2 acyl side, 3 side chain; linkers in the order of their positions; H or OH if unused. Non-standard residues stand in square brackets, D forms with d. Residues, ends and D or L forms follow the SMILES beside them. X1 = N=C(CCl)NCCC[C@H](N[*:1])C(=O)[*:2]
Tests used:
PRMT1 [1] = target: T1, PRMT1 (Homo sapiens, UniProt Q99873); assay: MTase-Glo Methyltransferase Assay, kinetic parameters of peptide substrates; format: biochemical; conditions: Tris pH 8.0; for kcat / Km: MTase-Glo luminescence, peptide 0–1000 µM, 4 µL of 200 nM PRMT1, 10 min at 37 °C, SAH standards, fit with GraFit; for kcat/Km: from kcat and Km, MTase-Glo assay, 37 °C
T1 construct: made in house
T1 sequence (Q99873 1-353 isoform Q99873-3): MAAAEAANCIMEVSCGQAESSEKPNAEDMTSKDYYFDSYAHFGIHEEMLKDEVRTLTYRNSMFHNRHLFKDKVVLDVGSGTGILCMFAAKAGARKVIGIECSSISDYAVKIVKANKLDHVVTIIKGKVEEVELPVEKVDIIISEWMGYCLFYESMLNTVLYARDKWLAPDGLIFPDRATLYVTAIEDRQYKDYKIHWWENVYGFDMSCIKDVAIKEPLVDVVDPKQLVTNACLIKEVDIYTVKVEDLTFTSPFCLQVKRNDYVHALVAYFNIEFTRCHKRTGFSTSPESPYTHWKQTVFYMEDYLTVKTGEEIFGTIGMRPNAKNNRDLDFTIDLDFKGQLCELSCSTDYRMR
Experimental: To determine the kinetic parameters, kcat, Km and kcat/Km for each of the validation or hit peptides, a MTase-Glo™ Methyltransferase Assay from the Promega Corporation was utilized to monitor the enzymatic reaction.
Varying concentrations (0–1000 µM) of the peptide in assay buffer (4 mM DTT, 0.4 mg/mL BSA, 4 mM EDTA, 12 mM MgCl2, 200 mM NaCl and 80 mM Tris Buffer-pH 8.0) were incubated at 37 °C for 10 min. Then 4 µL of 200 nM PRMT1 was added to this reaction mixture and continued for another 10 min at 37 °C. Of note the enzymatic activity was linear with respect to time and enzyme concentration under these conditions. The reaction was quenched by the addition of 2 µL 0.5% TFA and placed at room temperature before adding 2.2 µL of the 6× MTase-Glo Reagent. After 30 min, 13.2 µL of the MTase-Glo Detection Solution was added and incubated for an additional 30 min before the luminescence was read using a BioTek Synergy 2 Multi-Mode Microplate Reader (Agilent Technologies, Santa Clara, CA). Luminescence signal was converted to product concentration using SAH standards (0–5 μM) and the initial rates were fit to Equation (1):[…](1) using GraFit version 7.03.

PRMT1 [2] = assay: Plate-based on-bead substrate screening assay (ADMA antibody / alkaline phosphatase / BCIP); format: biochemical; conditions: 20 beads/well; 500 nM PRMT1, 400 µM SAM, 37 °C, HEPES pH 8.0; hit = at least 10 blue beads per well
Experimental: The beads from the filter plate were transferred to an Acrowell 96 Filter screening plate (Cat#5020; Pall Corporation; Port Washington, NY) and rinsed with 0.20 mL DI water, followed by 0.20 mL of TBST 10 times. The beads were swelled with 0.25 mL TBST overnight with gentle rocking at 4 °C. The plate was rinsed with 0.25 mL of Assay Buffer #1 (50 mM HEPES pH 8.0, 50 mM NaCl, 1 mM EDTA). After draining, the plate was incubated with 500 nM PRMT1 in 0.1 mL of Assay Buffer #2 (50 mM HEPES pH 8.0, 50 mM NaCl, 1 mM EDTA, 0.5 mM DTT, 400 µM SAM) for 90 min at 37 °C while rocked gently at 120 rpm. The plate was rinsed with TBST (5 × 0.20 mL) then rocked gently in 100 µL of 0.1% SDS for 15 min at room temperature, before being washed with DI water (10 × 0.20 mL) and TBST (10 × 0.20 mL).
Beads were blocked with 125 µL of 1.5% (w/v) BSA in TBST for 1 h at room temperature with gentle rocking. The beads were rinsed with TBST (5 × 0.20 mL), then incubated overnight at 4 °C with 0.065 mL total volume of TBST + 1.5% (w/v) BSA + 1:500 Ab412 antibody (purchased from Abcam; Cambridge, UK) with gentle rocking.
The plate was then rinsed with 0.20 mL of TBS for 10 min and 0.20 mL TBST for another 10 min. The plate was incubated with gentle rocking for 60 min at room temperature with 0.065 mL total volume of TBST + 1.5% (w/v) BSA + 1:4000 Ab98690 antibody (secondary antibody: purchased from Abcam; Cambridge, UK). This mixture was rinsed with TBS (10 × 0.20 mL), then 0.2 mL TBST for 10 min. The plate was then incubated with 2.5 mg/mL 5-Bromo-4-chloro-3-indolyl phosphate (BCIP: a substrate that detects alkaline phosphatase emitting a blue hue when conjugated with secondary antibodies) dissolved in BCIP buffer (5.85 g NaCl, 12.1 g Tris-base, 0.476 g MgCl2 in 1 L of DI water, pH 9.0) at room temperature for 1 h with gentle rocking. The reaction was quenched with 0.1 M HCl.
Previously, we reported on this novel plate-based screening assay of the PRMT family of enzymes and identified a PRMT1 peptide substrate with kcat/Km of 8.1 × 10^4 M^−1 min^−1, which validated this screening methodology. In the current work, we utilized this method to screen a second-generation peptide library against PRMT1, which incorporated amino acids with diverse charge, size, and PTMs around the substrate arginine. Beads functionalized with peptide library members were washed extensively with buffers and subsequently incubated with PRMT1 for 60 min. The methylation reaction was then quenched with sodium dodecyl sulfate to denature PRMT1 and halt the enzymatic reaction. The peptide beads that contained ADMA as a result of PRMT1 action were identified using a 1° antibody that binds only to ADMA. […] The beads were then incubated with a 2° antibody conjugated to alkaline phosphatase. […]

PRMT1 [3] = target: T1, PRMT1; conditions: cited from earlier work
Experimental: Table 3 List of Validation Peptide Sequences along with the Kinetic Parameters. | column: kcat (min^−1); Km (µM); kcat/Km (M^−1 min^−1) || Design and Synthesis of the Peptide Library. Histone peptides are well-documented substrates of PRMT1 and thus provide a good model for the design of a screening library to search for better PRMT1 peptide substrates. […] Given that our study is focused on identifying peptide substrates with improved kinetic parameters, we chose to use a library based on the H4-16 template. Our previous work highlighted that flexibility was permitted within the ... || Rather than testing all individual hit peptide sequences, and to help identify the specific elements that are important for PRMT1 substrate binding, we collected and synthesized a series of consensus-based sequences from the list of hit peptides.

PRMT1 [4] = target: T1, PRMT1; assay: MTase-Glo assay, inhibition by chloroacetamidine warhead peptide; format: biochemical; conditions: inhibitor 0–250 µM, 4 µL of 400 nM PRMT1, 15 min pre-incubation at 37 °C, substrate AcH4-21 (1 µL of 225 µM), Tris pH 8.0
Experimental: The MTase-Glo assay was also used to determine the inhibition parameters of the chloroacetamidine warhead peptide. For this assay, various concentrations of the chloroacetamidine warhead peptide (0–250 µM) were added to reaction buffer (80 mM Tris Buffer [pH 8.0], […], 4 mM EDTA, 12 mM MgCl2, 0.4 mg/mL BSA and 4 mM DTT) and incubated for 10 min at 37 °C. Following this incubation, 4 µL of 400 nM PRMT1 was added to the inhibition reaction mix and continued to be incubated at 37 °C for 15 min. The substrate peptide, 1 uL of 225 µM AcH4-21, was added to each reaction for 15 min. To quench the reaction, each sample received 2 µL of 0.5% TFA solution and placed at room temperature before 2.2 µL of the 6× MTase-Glo reagent was added to each sample for 30 min. Then 13.2 µL of the MTase-Glo Detection solution was added and incubated for an additional 30 min. The luminescence signal was read using a BioTek Synergy 2 Multi-Mode Microplate Reader and the % activity was calculated using an SAH standard curve (0–5 µM) before being fit to Equation (2):(2) Fractional Activity of PRMT=1/1+ 1/IC50 using GraFit version 7.03.

[5] = reference histone peptide substrate in Table 3, same kcat/Km as quoted

Compound	kcat (PRMT1 [1])	Km (PRMT1 [1]; read-out: Km)	kcat/Km (PRMT1 [1])	hit / non-hit as PRMT1 substrate in the plate-based screen (PRMT1 [2])	further results
XKKKARGGKGLGKGGAK [VALPep2]	2.58 ± 0.174 min⁻¹	7.82 ± 2.23 µM	329000 M⁻¹ min⁻¹	–	–
XCCVARGGKGLGKGGAK [Well G2 Peptide, “hit” library peptide X…, X = acetylated lysine]	0.986 ± 0.004 min⁻¹	25.4 ± 3.95 µM	38900 M⁻¹ min⁻¹	hit	–
VXWAWRGGKGLGKGGAK [Well E9 Peptide, “non-hit” library peptide VX…, X = acetylated lysine]	not detectable	–	–	non-hit	Km (PRMT1 [1]): not detectable
SGRGKGGKGLGKGGAK [AcH4-16, Histone H4-16 peptide, a mediocre substrate of PRMT1, template of the library]	–	–	–	–	Km (PRMT1 [3]; [5]): 170 ± 25 µM; kcat (PRMT1 [3]; [5]): 0.320 ± 0.001 min⁻¹; kcat/Km (PRMT1 [3]; reference histone peptide substrate): 1900 M⁻¹ min⁻¹
CC(=O)NCCCC[C@H](N)C(=O)N[C@@H](CCCCN)C(=O)N[C@@H](CS)C(=O)N[C@@H](CCCCN)C(=O)N[C@@H](C)C(=O)N[C@@H](CCCNC(=N)CCl)C(=O)NCC(=O)NCC(=O)N[C@@H](CCCCN)C(=O)NCC(=O)N[C@@H](CC(C)C)C(=O)NCC(=O)N[C@@H](CCCCN)C(=O)NCC(=O)NCC(=O)N[C@@H](C)C(=O)N[C@@H](CCCCN)C(N)=O [VALPep1 Warhead Peptide] (H-K(Ac)KCKA[X1]GGKGLGKGGAK-NH2)	–	–	–	–	IC50 (PRMT1 [4]): 3.47 ± 0.46 µM
WWXXWRGGKGLGKGGAK [Well B10 Peptide, “non-hit” library peptide WWXX…, X = acetylated lysine]	not detectable	–	–	non-hit	Km (PRMT1 [1]): not detectable
XKCKARGGKGLGKGGAK [VALPep1]	2.46 ± 0.080 min⁻¹	8.72 ± 1.2 µM	282000 M⁻¹ min⁻¹	–	–
H4-21 peptide: one of the best-known PRMT1 peptide substrates	–	–	–	–	kcat/Km (PRMT1 [3]; known PRMT1 peptide substrate Histone H4-21, literature value, no reference printed): 280000 M⁻¹ min⁻¹; kcat/Km (PRMT1 [3]; known PRMT1 peptide substrate Histone H4-21, literature value, no reference printed, listed as Histone H4-21): 280000 M⁻¹ min⁻¹
XKKVVRGGKGLGKGGAK [VALPep4]	1.61 ± 0.104 min⁻¹	7.42 ± 2.02 µM	216000 M⁻¹ min⁻¹	–	–
VKVCXRGGKGLGKGGAK [Well D5 Peptide, “hit” library peptide VKVCX…, X = acetylated lysine]	1.91 ± 0.113 min⁻¹	6.78 ± 1.77 µM	282000 M⁻¹ min⁻¹	hit	kcat (PRMT1 [1]; listed as Well D5): 1.912 ± 0.113 min⁻¹; kcat/Km (PRMT1 [1]; listed as Well D5): 282100 M⁻¹ min⁻¹
XKCVVRGGKGLGKGGAK [VALPep3]	0.927 ± 0.036 min⁻¹	6.92 ± 1.16 µM	134000 M⁻¹ min⁻¹	–	–

Source: paper PMC12650519, “The Identification of a Sub-Micromolar Peptide-Based Protein Arginine Methyltransferase 1 (PRMT1) Inhibitor from a Plate-Based Screening Assay” (Biomolecules, 2025)
